This is an account of results in patent US20020049190A1, “Pharmaceutical compositions comprising metal complexes” (priority 1999, published 2002).

Assay [1] is described as follows: In vitro test of NO uptake: manometer pressure and IR spectrum of freeze-dried product. Type of assay: binding. The note with it: aqueous solution under argon, 20° C.-24° C., NO gas in headspace, one hour. How it is done:
The resulting solution was placed in a three-necked pear-shaped flask and stirred by a magnetic stirrer at constant speed of 1000 rpm, at a constant temperature in the range 20° C.-24° C. A manometer was attached to the flask, and purified, dried nitric oxide gas (known volume in the range 3-5cm^3) was introduced via a septum, using a gas syringe, at atmospheric pressure into the headspace above the reaction solution. The pressure within the flask was recorded periodically over a period of one hour.
A control experiment was carried out according to the above but without any complex present.
On completion of each in vitro test, the reaction solution was freeze-dried. An infrared spectrum of the freeze-dried product provided information on metal-NO bond formation.

The subject of assay [2] is murine (RAW264) macrophage cell lines. Put plainly: In vitro cell culture test: available nitric oxide (nitrite+nitrate) in activated macrophages. Type of assay: cell-based. The settings on record: LPS + interferon γ activated RAW264, 18 hours. How it is done: Concurrently, test compounds made up in MEM were added at non-cytotoxic concentrations. Control cells as above, which were activated to produce nitric oxide as above, but to which no test compound was added, were used as a measure of the amouint of nitric oxide produced by the cells during the tests. (See […]. Powell, O. J. Vaughan, G. R. Henderson, B. A. Murrer, […]. Bisland, […], Ruthenium complexes as nitric oxide scavengers: a potential therapeutic approach to nitric oxide-mediated diseases, Br. J Pharmacol., 1997, 122, 1441-1449.) Background nitric oxide was assessed by measurement of nitrate and nitrite in cells which were not activated. Cell viability was confirmed by Trypan blue dye exclusion at the end of the incubation period. Nitric oxide was determined by measurement of nitrate and nitrite in the cell supernatant. These anions are the stable end-products of reactions of NO in solution. Such reactions may or may not be catalysed in biological systems. The sum of nitrite and nitrate concentrations gives the total NO production. […] Nitrate was determined by reducing nitrate to nitrite with a bacterial nitrate reductase from Pseudomonas oleovorans and then measuring nitrite with the Griess reaction. In the absence of test compounds nitrite concentration plus nitrate concentration is equal to total nitric oxide production. The effect of test compounds on available nitric oxide (measured as nitrite+nitrate) was determined. The reduction in available nitric oxide compared with the control level may be taken as an indication of the degree of binding of NO by the test compounds.

Assay [3] relates to rat tail artery. Kind of assay: Ex vivo test: perfused pre-contracted rat tail artery, vasoconstriction. The settings on record: for Vasoconstriction on application of test compound: 10 μM and 100 μM (Example 26 also 1000 μM); for % Vasoconstriction: artery pre-contracted with 6.5 μM phenylephrine; for Reversibility of the vasoconstriction: washout with Krebs solution. The text has this:
In the ex vivo tests, segments of rat tail artery (0.8-1.5 cm) were dissected free from normotensive adult Wistar rats. The arteries were internally perfused with Krebs solution (mM: NaCl 118, KCl 4.7, NaHCO3 25, NaH2PO4 1.15, CaCl22.5, MgCl2 1.1, glucose 5.6 and gassed with 95% O2/5% CO2 to maintain a pH of 7.4) in a constant flow perfusion apparatus. A differential pressure transducer located upstream of the vessel detected changes in back pressure. The rat tail artery preparation was pre-contracted with 6.5 μM phenylephrine to give a physiologically normal pressure of 100-120 mm Hg. The pre-contracted vessels were then perfused with the test compound. The arteries were perfused with Krebs solution between applications of test compound to wash out the test compound.
Pressure changes in the system served to indicate artery vasoconstriction. The vasoconstriction is a direct result of the removal of endogenous nitric oxide (edrf) from the endothelial cells of the rat tail artery.

Assay [4] deals with rat P22 carcinosarcoma grown in BD-IX rats. Put plainly: Tumour growth, vascularisation and plasma nitrite/nitrate in rats bearing P22 carcinosarcoma. The note with it: for Nitrite/nitrate levels at Day 28 / Tumour vascularisation (MVD), Mean Chalkey score: 50 mg/kg daily i.p. Day 10-Day 28; for Nitrite/nitrate levels at Day 28: Griess assay, untreated control 7.75; for Tumour vascularisation (MVD), Mean Chalkey score: anti-CD31 immunostaining, untreated control 13.0; for Tumour growth: 50 mg/kg daily intraperitoneal, Day 10-Day 28, male BD-IX rats. Type of assay: in vivo. How it is done: The effect of AMD6245 (Example 113) and AMD6221 (Example 8) on tumour growth was assessed using the rat P22 carcinosarcoma grown in BD-IX rats (Kennovin et al., in Biology of Nitric Oxide, Vol. 4, (S. Moncada, M. Feelisch, R. Busse, and A. E. Higgs, eds.), Portland Press, London, 1994, pp. 473-479). The tumour was implanted subcutaneously on the dorsal surface of male BD-IX rats on Day 0. Tumour growth was measured daily using calipers and tumour volume calculated from the equation […] where X=the short tumour axis and Y=the long tumour axis. Tumours were measurable by Day 10. AMD6245 and AMD6221 were administered daily by intraperitoneal injection at a dose of 50 mg/kg from Day 10-Day 28. Tumour vascularisation (Microvascular Density or MVD) was measured by Chalkley point counting after immunostaining with anti-CD31 antibody (Vermeulen et al., Eur. J. Cancer, 32A, 2474-2484, (1996)). Nitrite/nitrate was measured by the Griess assay (see Table 4). These anions are the stable end products of NO in solution. Nitrate was first reduced to nitrite by […]. The sum of nitrite and nitrate gives the total NO production.
For orientation: The Griess reaction detects nitrite, a stable product of nitric oxide.

As for K[Ru(hnta)2]½H2O [Example 7], the “Pressure decrease indicating binding of NO to the metal compound” value in assay [1] is “pressure decrease indicated binding of NO”.

As for `CC(=O)[O-].CC(=O)[O-].CC(=O)[O-].CC(=O)[O-].[Cl-].[Ru+3].[Ru+3]` [Example 14, [Ru2(OAc)4]Cl], the “% Decrease of Available Nitric Oxide” value in assay [2] (100 μM test compound) was determined as 47%. Further, the “Vasoconstriction on application of test compound” value (“Vasoconstriction on application” for short) in assay [3] is on record as “dose-dependent vasoconstriction”. Also, the “% Vasoconstriction” value came out at 11% in assay [3] (10 μM) and 40% in assay [3] (100 μM). Besides, the “Reversibility of the vasoconstriction” value in assay [3] is listed as “reversible by washout”.

Regarding `O.O=C([O-])CN(CCO)CCN(CC(=O)[O-])CC(=O)[O-].[Cl-].[K+].[Ru+3]` [Example 3, K[Ru(hedtra)Cl]H2O], in assay [1], the “Pressure decrease indicating binding of NO to the metal compound” value is on record as “pressure decrease indicated binding of NO”. For the same molecule, in assay [2] (100 μM test compound), the “% Decrease of Available Nitric Oxide” value is on record as 42%. In assay [3], the “Vasoconstriction on application” value was “dose-dependent vasoconstriction” and the “Reversibility of the vasoconstriction” value was “reversible by washout”. In assay [3] (10 μM), the “% Vasoconstriction” value came out at 17%. Moreover, the “% Vasoconstriction” value in assay [3] (100 μM) came out at 59%.

As for `O.O.O=C([O-])CN(CCN(CC(=O)[O-])CC(=O)O)CC(=O)[O-].[Cl-].[K+].[Ru+3]` [Example 1, K[Ru(hedta)Cl]2H2O], the “Pressure decrease indicating binding of NO to the metal compound” value in assay [1] is given as “pressure decrease indicated binding of NO”. Moreover, the “% Decrease of Available Nitric Oxide” value in assay [2] (25 μM test compound) stood at 12%; in assay [2] (50 μM test compound), 23%; in assay [2] (100 μM test compound), 75%.

Regarding `O.O=C([O-])c1cccc(C(=O)[O-])n1.O=C([O-])c1cccc(C(=O)[O-])n1.[K+].[Ru+3]` [Example 4, K[Ru(dipic)2]H2O], the “Pressure decrease indicating binding of NO to the metal compound” value in assay [1] is reported as “pressure decrease indicated binding of NO”.

For the molecule `O.O=C([O-])CN(CCN(CC(=O)O)CC(=O)O)CC(=O)[O-].[Cl-].[Cl-].[K+].[Ru+3]` [Example 6, K[Ru(H2edta)Cl2]H2O], the “Pressure decrease indicating binding of NO to the metal compound” value in assay [1] is on record as “pressure decrease indicated binding of NO”. The “% Decrease of Available Nitric Oxide” value in assay [2] (100 μM test compound) is reported as 77%.

For [Ru(Hedta)]H2O [AMD6245], in assay [4], the “Nitrite/nitrate levels at Day 28” value came to 3.88 μmoles/litre plasma; the “Tumour vascularisation (MVD), Mean Chalkey score” value was determined as 3.0; the Tumour growth entry is on record as “inhibited the growth”.

On to `Cc1occc(=O)c1[O][Ru]([O]c1c(C)occc1=O)[O]c1c(C)occc1=O` [Example 26, [Ru(maltol)3]], for which, in assay [2] (100 μM test compound), the “% Decrease of Available Nitric Oxide” value is given as 71%. Also, the “Vasoconstriction on application” value in assay [3] is “dose-dependent vasoconstriction”. Besides, the “% Vasoconstriction” value in assay [3] (10 μM) came to 10%; in assay [3] (100 μM), 18%; in assay [3] (1000 μM), 25%. The “Reversibility of the vasoconstriction” value in assay [3] is listed as “reversible by washout”.

Turning to K[Ru(H2dtpa)Cl]H2O [Example 8], the “Pressure decrease indicating binding of NO to the metal compound” value in assay [1] is given as “pressure decrease indicated binding of NO”. In addition, in assay [4], the “Nitrite/nitrate levels at Day 28” value was found to be 5.09 μmoles/litre plasma; the “Tumour vascularisation (MVD), Mean Chalkey score” value was 5.3; the Tumour growth result was “inhibited the growth”.

For [Ru(NH3)5Cl]Cl2 [Example 15], the “% Decrease of Available Nitric Oxide” value in assay [2] (100 μM test compound) came out at 86%. In assay [3], the “Vasoconstriction on application” value is listed as “dose-dependent vasoconstriction”. In addition, the “% Vasoconstriction” value worked out at 77% in assay [3] (10 μM) and 86% in assay [3] (100 μM). The “Reversibility of the vasoconstriction” value in assay [3] was “reversible by washout”.

Consider `CC(=O)C=C(C)[O-].O=C([O-])CN(CCN(CC(=O)O)CC(=O)O)CC(=O)[O-].[Ru+3]` [Example 2, [Ru(H2edta)(acac)]], for which the “% Decrease of Available Nitric Oxide” value in assay [2] (100 μM test compound) was determined as 82%. Also, in assay [3], the “Vasoconstriction on application” value was “dose-dependent vasoconstriction” and the “Reversibility of the vasoconstriction” value is on record as “reversible by washout”. For the same molecule, the “% Vasoconstriction” value in assay [3] (10 μM) was 20%. Moreover, the “% Vasoconstriction” value in assay [3] (100 μM) worked out at 69%.
